Reference: patent US12628827B2, “Isoxazoline compounds and their use as pest control agents” (PI INDUSTRIES LIMITED, priority 2020, dated 2026)

Experiments:
Type in all cases: in vivo
Tetranychus urticae = Tetranychus urticae leaf dip method; settings: foliar, French bean leaves, third instar nymphs, 72 h after release, dead + moribund vs untreated control, read-out: percent mortality
Procedure: (§1) The leaf dip method was used for testing, wherein the required quantity of the compound was weighed and dissolved in a tube containing solvent solution. The tube was put on a vortex at 2000 rpm for 90 min for proper mixing, then, diluted with 0.01% Triton-X solution to the desired test concentration. French bean leaves were dipped in the compound solution for 10 seconds, shade dried for 20 min and then placed, with the abaxial side of the leaf up, in single cells of a bio-assay tray containing 4 mL of a solidified 1% agar-agar solution. Known numbers of third instar nymphs were released into the cell with the treated leaf and the cell was covered with a perforated lid for better aeration. The trays were kept in a plant growth chamber at a temperature of 25° C. and a relative humidity of 70%. Observations on dead, moribund and alive nymphs were recorded 72 h after the release. Percent mortality was calculated by combining dead and moribund nymphs and comparing the result with the one of the untreated control. The compounds 1 2 26 38 40 46 47 48 and 49 recorded ≥70 percent mortality @ 300 PPM.

[1] = tested on: Amrasca biguttulla biguttulla; experiment: Amrasca biguttulla biguttulla leaf dip method; settings: Solanum melongena, foliar, brinjal leaves, second instar nymphs, 72 h after release, dead + moribund vs untreated control, read-out: percent mortality
Procedure: as §1, with “concentration. Brinjal” for “concentration. French bean”, “of second” for “of third”, “compounds 1,” for “compounds 1”, “2 and” for “2 26 38”, “40” for “40 46 47 48 and 49”

Scirtothrips dorsalis = Scirtothrips dorsalis leaf dip method; settings: foliar, capsicum leaves, second instar nymphs, 72 h after release, dead + moribund vs untreated control, read-out: percent mortality
Procedure: as §1, with “concentration. Capsicum” for “concentration. French bean”, “of second” for “of third”, “compounds 1,” for “compounds 1”, “2 and” for “2 26 38”, “40” for “40 46 47 48 and 49”

Plutella xylostella = Plutella xylostella leaf dip method; settings: foliar, cabbage leaves, second instar larvae, 72 h after release, dead + moribund vs untreated control, read-out: per cent mortality
Procedure: The leaf dip method was used for testing, wherein the required quantity of the compound was weighed and dissolved in a tube containing solvent solution. The tube was put on a vortex at 2000 rpm for 90 min for proper mixing, then, diluted with a 0.01% Triton-X solution to the desired test concentration. Cabbage leaves were dipped in the compound solution for 10 seconds, shade dried for 20 min and then transferred into the cells of bioassay trays. A single second instar larva was released into each cell and the tray was covered with a lid. The bio-assay trays were then kept under laboratory conditions at a temperature of 25° C. and a relative humidity of 70%. Observations on dead, moribund and alive larvae were recorded 72 h after the release. Percent mortality was calculated by combining dead and moribund larvae and comparing the result to the one of the untreated control. The compounds, […]

| SMILES | mortality at 300 ppm (Tetranychus urticae) | mortality at 300 ppm [1] | mortality at 300 ppm (Scirtothrips dorsalis) | mortality at 300 ppm (Plutella xylostella) |
| --- | --- | --- | --- | --- |
| Cc1cc(C2=NOC(c3cc(Cl)c(F)c(Cl)c3)(C(F)(F)F)C2)ccc1C(=O)Nc1nc(C(F)(F)F)n(C)n1 (stereo not shown) [Compound 1, 4-(5-(3,5-dichloro-4-fluorophenyl)-5-(trifluoromethyl)-4,5-dihydroisoxazol-3-yl)-2-methyl-N-(1-methyl-5-(trifluoromethyl)-1H-1,2,4-triazol-3-yl)benzamide] | ≥ 70% | ≥ 70% | ≥ 70% |  |
| Cc1cc(C2=NOC(c3cc(Cl)cc(Cl)c3)(C(F)(F)F)C2)ccc1C(=O)Nc1nc(C(F)(F)F)n(C)n1 (stereo not shown) [Compound 2, 4-(5-(3,5-dichlorophenyl)-5-(trifluoromethyl)-4,5-dihydroisoxazol-3-yl)-2-methyl-N-(1-methyl-5-(trifluoromethyl)-1H-1,2,4-triazol-3-yl)benzamide] | ≥ 70% | ≥ 70% | ≥ 70% |  |
| Cc1cc(C2=NOC(c3cc(Cl)c(F)c(Cl)c3)(C(F)(F)F)C2)ccc1C(=O)Nc1nc(C(C)C)n(C)n1 (stereo not shown) [Compound 26, 4-(5-(3,5-dichloro-4-fluorophenyl)-5-(trifluoromethyl)-4,5-dihydroisoxazol-3-yl)-N-(5-isopropyl-1-methyl-1H-1,2,4-triazol-3-yl)-2-methylbenzamide] | ≥ 70% |  |  |  |
| Cc1cc(C2=NOC(c3cc(Cl)c(F)c(Cl)c3)(C(F)(F)F)C2)ccc1C(=O)N(CC(F)(F)F)c1nc(C(C)C)n(CC(F)(F)F)n1 (stereo not shown) [Compound 31, 4-(5-(3,5-dichloro-4-fluorophenyl)-5-(trifluoromethyl)-4,5-dihydroisoxazol-3-yl)-N-(5-isopropyl-1-(2,2,2-trifluoroethyl)-1H-1,2,4-triazol-3-yl)-2-methyl-N-(2,2,2-trifluoroethyl)benzamide] |  |  |  | ≥ 70% |
| CCc1nc(NC(=O)c2ccc(C3=NOC(c4cc(Cl)cc(Cl)c4)(C(F)(F)F)C3)cc2C)nn1CC (stereo not shown) [Compound 38, 4-(5-(3,5-dichlorophenyl)-5-(trifluoromethyl)-4,5-dihydroisoxazol-3-yl)-N-(1,5-diethyl-1H-1,2,4-triazol-3-yl)-2-methylbenzamide] | ≥ 70% |  |  |  |
| Cc1cc(C2=NOC(c3cc(Cl)c(F)c(Cl)c3)(C(F)(F)F)C2)ccc1C(=O)N(C)c1nc(C(F)(F)F)n(C)n1 (stereo not shown) [Compound 40, 4-(5-(3,5-dichloro-4-fluorophenyl)-5-(trifluoromethyl)-4,5-dihydroisoxazol-3-yl)-N,2-dimethyl-N-(1-methyl-5-(trifluoromethyl)-1H-1,2,4-triazol-3-yl)benzamide] | ≥ 70% | ≥ 70% | ≥ 70% |  |
| Cc1cc(C2=NOC(c3cc(Cl)c(F)c(Cl)c3)(C(F)(F)F)C2)ccc1C(=O)N(C)c1nc(C(C)(F)F)n(C)n1 (stereo not shown) [Compound 46, 4-(5-(3,5-dichloro-4-fluorophenyl)-5-(trifluoromethyl)-4,5-dihydroisoxazol-3-yl)-N-(5-(1,1-difluoroethyl)-1-methyl-1H-1,2,4-triazol-3-yl)-N,2-dimethylbenzamide] | ≥ 70% |  |  |  |
| Cc1cc(C2=NOC(c3cc(Cl)c(F)c(Cl)c3)(C(F)(F)F)C2)ccc1C(=O)Nc1nc(C(C)(F)F)n(C)n1 (stereo not shown) [Compound 47, 4-(5-(3,5-dichloro-4-fluorophenyl)-5-(trifluoromethyl)-4,5-dihydroisoxazol-3-yl)-N-(5-(1,1-difluoroethyl)-1-methyl-1H-1,2,4-triazol-3-yl)-2-methylbenzamide] | ≥ 70% |  |  |  |
| Cc1cc(C2=NOC(c3cc(Cl)cc(Cl)c3)(C(F)(F)F)C2)ccc1C(=O)Nc1nc(C(C)(F)F)n(C)n1 (stereo not shown) [Compound 48, 4-(5-(3,5-dichlorophenyl)-5-(trifluoromethyl)-4,5-dihydroisoxazol-3-yl)-N-(5-(1,1-difluoroethyl)-1-methyl-1H-1,2,4-triazol-3-yl)-2-methylbenzamide] | ≥ 70% |  |  |  |
| Cc1cc(C2=NOC(c3cc(Cl)cc(Cl)c3)(C(F)(F)F)C2)ccc1C(=O)N(C)c1nc(C(C)(F)F)n(C)n1 (stereo not shown) [Compound 49, 4-(5-(3,5-dichlorophenyl)-5-(trifluoromethyl)-4,5-dihydroisoxazol-3-yl)-N-(5-(1,1-difluoroethyl)-1-methyl-1H-1,2,4-triazol-3-yl)-N,2-dimethylbenzamide] | ≥ 70% |  |  |  |
| Cc1cc(C2=NOC(c3cc(Cl)cc(Cl)c3)(C(F)(F)F)C2)ccc1C(=O)N(CC(F)(F)F)c1nc(CCC(F)(F)F)n(CC(F)(F)F)n1 (stereo not shown) [Compound 83, 4-(5-(3,5-dichlorophenyl)-5-(trifluoromethyl)-4,5-dihydroisoxazol-3-yl)-2-methyl-N-(2,2,2-trifluoroethyl)-N-(1-(2,2,2-trifluoroethyl)-5-(3,3,3-trifluoropropyl)-1H-1,2,4-triazol-3-yl)benzamide] |  |  |  | ≥ 70% |
| Cc1cc(C2=NOC(c3cc(Cl)cc(Cl)c3)(C(F)(F)F)C2)ccc1C(=O)N(CC(F)F)c1nc(CCC(F)(F)F)n(CC(F)F)n1 (stereo not shown) [Compound 87, 4-(5-(3,5-dichlorophenyl)-5-(trifluoromethyl)-4,5-dihydroisoxazol-3-yl)-N-(2,2-difluoroethyl)-N-(1-(2,2-difluoroethyl)-5-(3,3,3-trifluoropropyl)-1H-1,2,4-triazol-3-yl)-2-methylbenzamide] |  |  |  | ≥ 70% |
| Cc1cc(C2=NOC(c3cc(Cl)c(F)c(Cl)c3)(C(F)(F)F)C2)ccc1C(=O)N(CC(F)(F)F)c1nc(CCC(F)(F)F)n(CC(F)(F)F)n1 (stereo not shown) [Compound 111, 4-(5-(3,5-dichloro-4-fluorophenyl)-5-(trifluoromethyl)-4,5-dihydroisoxazol-3-yl)-2-methyl-N-(2,2,2-trifluoroethyl)-N-(1-(2,2,2-trifluoroethyl)-5-(3,3,3-trifluoropropyl)-1H-1,2,4-triazol-3-yl)benzamide] |  |  |  | ≥ 70% |
